Data on 36 compounds can be found in PubChem BioAssay AID2019 (NMMLSC, 2009).

As usually defined, the Ki is a measure of affinity in units of concentration, obtained from inhibition or displacement.

Each structure is given as a SMILES string.

For the assay, the target named is Cell division control protein 42 homolog (Homo sapiens) (UniProt P60953). Description: inhibition of fluorescent GTP binding to wildtype Cdc42 – biochemical, pyrazoline analogs, multiplex bead flow cytometry, Ki, SAR follow-up (AID 2019). As to conditions: bead-based flow cytometry, Bodipy-FL-GTP binding; Ki calculated from EC50.
Chain of Cell division control protein 42 homolog (Homo sapiens) (P60953 whole entry, looked up): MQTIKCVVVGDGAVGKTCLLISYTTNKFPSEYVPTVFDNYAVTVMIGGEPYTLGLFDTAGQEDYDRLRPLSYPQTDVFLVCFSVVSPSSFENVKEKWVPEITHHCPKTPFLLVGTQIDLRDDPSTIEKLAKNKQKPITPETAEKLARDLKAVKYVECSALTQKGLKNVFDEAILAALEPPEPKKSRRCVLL
With `Cc1ccccc1C1CC(c2ccccc2)=NN1c1ccc(S(N)(=O)=O)cc1` (stereo unspecified), the Ki was 3510 nM.

`COc1ccc(C2CC(c3cccc(C)c3)=NN2c2ccc(S(N)(=O)=O)cc2)cc1` (stereo unspecified): the Ki was 800 nM.

`COc1ccccc1C1CC(c2ccccc2)=NN1c1ccc(S(N)(=O)=O)cc1` (stereo unspecified): the inhibition constant Ki is 4750 nM.

As to `COc1ccc(C2CC(c3ccccc3)=NN2c2ccc(S(N)(=O)=O)cc2)cc1OC` (stereo unspecified), the Ki was 1210 nM.

On to `COc1ccc(C2CC(c3ccc(F)cc3)=NN2c2cccc(F)c2)cc1OC` (stereo unspecified), for which the inhibition constant (Ki) was 4450 nM.

With `COc1ccc(C2CC(c3ccccc3Br)=NN2c2ccc(S(N)(=O)=O)cc2)cc1` (stereo unspecified), the Ki was 710 nM.

For `COc1ccc(C2CC(c3cccc(OC)c3)=NN2c2ccc(S(N)(=O)=O)cc2)cc1` (stereo unspecified), the Ki was 310 nM.

Consider `COc1ccc(C2CC(c3cccc(Cl)c3)=NN2c2ccc(S(N)(=O)=O)cc2)cc1` (stereo unspecified), for which the Ki was 270 nM.

With `COc1ccc(C2CC(c3ccccc3F)=NN2c2ccc(S(N)(=O)=O)cc2)cc1` (stereo unspecified), the inhibition constant Ki is 590 nM.

For `O=S(=O)(c1ccc(N2N=C(c3ccccc3)CC2c2ccccc2)cc1)C(F)F` (stereo unspecified), the Ki is 50 nM.

For `COc1cccc(C2CC(c3ccccc3)=NN2c2ccc(S(N)(=O)=O)cc2)c1` (stereo unspecified), the Ki is 1010 nM.

For the compound `COc1ccc(C2CC(c3cccc(C(F)(F)F)c3)=NN2c2ccc(S(N)(=O)=O)cc2)cc1` (stereo unspecified), the inhibitory constant (Ki) was 660 nM.

With `COc1ccc(C2CC(c3cccc(F)c3)=NN2c2ccc(S(N)(=O)=O)cc2)cc1` (stereo unspecified), the Ki was 610 nM.

Turning to `NS(=O)(=O)c1ccc(N2N=C(c3ccccc3)CC2c2ccccc2Cl)cc1` (stereo unspecified), the Ki was 1530 nM.

For `COc1ccc(C2CC(c3cccs3)=NN2c2ccc(S(N)(=O)=O)cc2)cc1` (stereo unspecified), the inhibition constant (Ki) was 620 nM.

As to `NS(=O)(=O)c1ccc(N2N=C(c3ccccc3)CC2c2ccc(Cl)cc2)cc1` (stereo unspecified), the Ki is 580 nM.

`COc1ccc(C2=NN(c3ccc(S(N)(=O)=O)cc3)C(c3ccc(OC)cc3)C2)cc1` (stereo unspecified): the Ki is 540 nM.

For `COc1ccc(-c2cc(-c3ccccc3)nn2-c2ccc(S(N)(=O)=O)cc2)cc1`, the Ki was 1070 nM.

For `COc1ccc(C2CC(c3cccnc3)=NN2c2ccc(S(N)(=O)=O)cc2)cc1` (stereo unspecified), the Ki was 2010 nM.

Regarding `Cc1ccc(C2CC(c3ccccc3)=NN2c2ccc(S(N)(=O)=O)cc2)cc1` (stereo unspecified), the Ki was 1050 nM.

As to `NS(=O)(=O)c1ccc(N2N=C(c3ccccc3)CC2c2cccc(Cl)c2)cc1` (stereo unspecified), the Ki is 700 nM.

In the case of `COc1ccc(C2CC(c3ccc(C)cc3)=NN2c2ccc(S(N)(=O)=O)cc2)cc1` (stereo unspecified), the Ki was 470 nM.

Take `COc1ccc(C2CC(c3ccsc3)=NN2c2ccc(S(N)(=O)=O)cc2)cc1` (stereo unspecified): the Ki was 1540 nM.

As for `NS(=O)(=O)c1ccc(N2N=C(c3ccccc3)CC2c2ccc(Br)cc2)cc1` (stereo unspecified), the inhibition constant Ki is 230 nM.

Turning to `COc1ccc(C2CC(c3ccc(Cl)cc3)=NN2c2ccc(S(N)(=O)=O)cc2)cc1` (stereo unspecified), the Ki was 490 nM.

Take `COc1ccc(C2CC(c3ccccc3OC)=NN2c2ccc(S(N)(=O)=O)cc2)cc1` (stereo unspecified): the Ki is 1270 nM.

Regarding `COc1ccc(C2CC(c3ccc(F)cc3)=NN2c2ccc(S(N)(=O)=O)cc2)cc1` (stereo unspecified), the Ki is 900 nM.

For the compound `COc1ccc(C2CC(c3ccccc3C)=NN2c2ccc(S(N)(=O)=O)cc2)cc1` (stereo unspecified), the Ki is 870 nM.

In the case of `NS(=O)(=O)c1ccc(N2N=C(c3ccccc3)CC2c2cccc(Br)c2)cc1` (stereo unspecified), the Ki was 700 nM.

Regarding `COc1ccc(C2CC(c3ccc(Br)cc3)=NN2c2ccc(S(N)(=O)=O)cc2)cc1` (stereo unspecified), the Ki is 630 nM.

In the case of `COc1ccc(C2CC(c3ccccc3Cl)=NN2c2ccc(S(N)(=O)=O)cc2)cc1` (stereo unspecified), the Ki is 550 nM.

`NS(=O)(=O)c1ccc(N2N=C(c3ccc(Cl)cc3)CC2c2ccccc2)cc1` (stereo unspecified): the Ki is 700 nM.

As to `COc1ccc(C2CC(c3cccc(Br)c3)=NN2c2ccc(S(N)(=O)=O)cc2)cc1` (stereo unspecified), the Ki was 440 nM.

In the case of `Cc1cccc(C2CC(c3ccccc3)=NN2c2ccc(S(N)(=O)=O)cc2)c1` (stereo unspecified), the Ki is 1060 nM.

With `COc1ccc(C2CC(c3ccc(N(C)C)cc3)=NN2c2ccc(S(N)(=O)=O)cc2)cc1` (stereo unspecified), the Ki is 710 nM.

On to `COc1ccc(C2=NN(c3ccccc3)C(c3ccccc3C(F)(F)F)C2)cc1` (stereo unspecified), for which the inhibitory constant (Ki) is 7280 nM.
